Source: patent US20040067565A1, “Selective functionalization of hydrocarbons with isolated oxygenases and mediator based regeneration” (priority 2002, published 2004)
Marks after values point to notes of the source that are not given here.

Assays:
[1] = system: several dehydrogenases (HLADH, TBADH, etc.); conditions: previously reported [13]; cited from earlier work
Cytochrome C (cytC) = biological target: T1, Cytochrome C (cytC) (Equus caballus, UniProt P00004); experiment: [Cp*Rh(bpy)H]+ catalyzed, formate driven reduction of Cytochrome C (absorption at 550 nm); assay type: biochemical, horse; conditions: for TF ([Cp*Rh(bpy)(H2O)]2+) / dc(CytC)red/dt: c(CytC) 31.2 μM, c(NaHCO2) 150 mM
T1 construct: cytC- (from horse heart, Fluka, Buchs Switzerland); purchased Fluka, Buchs Switzerland; host or cells: horse heart
T1 sequence (P00004 whole entry): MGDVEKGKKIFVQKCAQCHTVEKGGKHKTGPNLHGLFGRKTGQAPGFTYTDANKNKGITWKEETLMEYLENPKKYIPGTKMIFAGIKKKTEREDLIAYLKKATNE
Description: In a typical experiment potassium phosphate buffer (50 mM, pH 7.0, c(NaHCO2)=150 mM) is supplemented with cytC- (from horse heart, Fluka, Buchs Switzerland) and [Cp*Rh(bpy)(H2O)]^2+-stocksolutions to 1 ml final volume in a quartz kuvette and placed into a thermostatted (T=30° C.) UV-spectrophotometer (UNICAM). After addition of the components, the absorption at λ=550 nm is followed. Concentrations of reduced CytC were determined after background correction according to the law of Lamber-Beer utilizing a molar extinction coefficient for reduced CytC of […].
In another typical experiment, the reaction temperature was varied between 20 and 35° C.
To exclude stoichiometric interaction of [Cp*Rh(bpy)(H2O)]^2+ with cytC, in another experiment low c([Cp*Rh(bpy)(H2O)]^2+) were applied. In 50 ml degassed potassium phosphate buffer (50 mM, pH 7.0, c(NaHCO2)=150 mM) 10 μM ([Cp*Rh(bpy)(H2O)]^2+) were incubated with 80 μM cytC (FIG. 9).

[2] = [Cp*Rh(bpy)(H2O)]2+ catalyzed reduction of FAD leading to hydrogen peroxide
Description: (§1) Hydrogen peroxide was determined enzymatically, based on the method by Saito et al.. Samples were mixed with a solution of 0.6 mM 4-amino antipyrine, 9 mM phenol, and 6 U×ml^−1 peroxidase from Coprinus cinereus. After one minute incubation at room temperature the absorption at 550 nm was measured.
0.2 mM [Cp*Rh(bpy)(H2O)]^2+, 0.05 mM FAD, and 1.16 μM StyA in. 50 mM potassium phosphate buffer with 150 mM sodium formate were incubated at 37° C. and agitation at 1500 rpm. At intervals samples were taken and analyzed for their hydrogen peroxide concentration. From the results a catalytic performance of 48 turnovers per hour for [Cp*Rh(bpy)(H2O)]^2+ was calculated.
In a second experiments a reaction mixture of this composition was supplemented with 2 mM styrene. After 15 min the reaction was stopped and analyzed for hydrogen peroxide and styrene oxide. 0.28 mM styrene oxide and […] were found at this time corresponding to an overall catalytic activity of [Cp*Rh(bpy)(H2O)]^2+ of 47 turnovers per hour.
as §1, with “peroxide produced” for “peroxide”, “enzymatically with a modified assay by” for “enzymatically, based on the”
0.2 mM [Cp*Rh(bpy)(H2O)]^2+, 0.225 mM FAD dissolved in O2 saturated potassium phosphate buffer were thermostated at 37° C. in an air-tight reaction vessel (O2-measurements: 2 ml, UV-measurements: 1 ml quartz kuvette). Reactions were started on addition of sodium formate stock solution (final concentration: 150 mM).
1 ml of 19 μM Cp*Rh(bpy)(H2O)]^2+ and 0-200 μM FAD in 50 mM potassium phosphate buffer (pH 7.0, c(NaHCO2)=150 mM) are placed in a 1.5 ml Eppendorf vial and incubated at 37° C. and agitation at 1500 rpm. At intervals […] samples are withdrawn and analyzed for their H2O2 content (FIG. 17).

[3] = biological target: monooxygenase component of styrene monooxygenase (StyA) (Pseudomonas sp, UniProt O50214); experiment: [Cp*Rh(bpy)(H2O)]2+ driven, StyA-catalyzed epoxidation / sulfoxidation; assay type: biochemical
Sequence of monooxygenase component of styrene monooxygenase (StyA) (O50214 whole entry): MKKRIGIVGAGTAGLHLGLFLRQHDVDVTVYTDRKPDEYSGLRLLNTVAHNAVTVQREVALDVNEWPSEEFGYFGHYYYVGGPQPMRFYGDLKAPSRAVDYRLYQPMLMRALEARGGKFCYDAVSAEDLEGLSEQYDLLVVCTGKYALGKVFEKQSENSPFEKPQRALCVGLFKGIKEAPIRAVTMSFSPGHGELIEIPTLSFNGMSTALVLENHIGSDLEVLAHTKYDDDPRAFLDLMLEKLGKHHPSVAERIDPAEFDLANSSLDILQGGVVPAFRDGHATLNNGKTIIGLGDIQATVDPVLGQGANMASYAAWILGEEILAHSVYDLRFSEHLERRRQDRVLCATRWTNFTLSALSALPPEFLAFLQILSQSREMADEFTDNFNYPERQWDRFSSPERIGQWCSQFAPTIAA
Description: In a typical experimental setup 1 ml total volume was placed in an Eppendorf cup in a Thermomixer. The temperature was set to 37° C. and the reaction mixture was shaken thoroughly to ensure O2 intake.
Product formation was followed by reversed phase HPLC. The HPLC system (Merck) consisted of a D-7000 controller, L-7200 autosampler, L-7400 UV detector, L-7100 liquid chromatography pump and was fitted with a CC250/4 Nucleosil 100-5 C18 HD column. Samples were eluted under isocratic conditions using 60% acetonitrile and 40% water at a flow rate of 1 ml×min^−1. The elution pattern was monitored at 210 nm.
0.2 mM [Cp*Rh(bpy)(H2O)]^2+, 0.05 mM FAD, 0.005 mM FMN, 2 mM styrene, 280 U catalase, and 1.16 μM StyA in 50 mM potassium phosphate buffer with 150 mM sodium formate were incubated at 37° C. and agitation at 1500 rpm. At intervals, reactions were stopped by addition of one equivalent volume of cold acetonitrile. After centrifugation (15 min at 4° C. and 23000×g the upper phase was analyzed by reverse phase HPLC. Concentrations were corrected according to the phase ratio after centrifugation. Results from this experiment are given in FIG. 10 and Table 3.
0.2 mM [Cp*Rh(bpy)(H2O)]^2+, 0.02 mM FAD, 2 mM substrate, 200 U catalase, and 1.47 μM StyA in 50 mM potassium phosphate buffer with 150 mM sodium formate were incubated at 37° C. and agitation at 1500 rpm.
Styrene oxide was analyzed using a CC200/4 Nucleodex α-PM (Machery-Nagel). As eluent 60% methanol and 40% 6.2 mM TEAA in water was used at a flow rate of 0.7 ml×min^−1. 1,2-Dihydronaphthalene oxide, trans-β-Methylstyrene oxide, indene oxide, and methyl phenyl sulfoxide were extracted from the reaction buffer with one aliquot hexane und analyzed unsing normal phase HPLC with a CHIRACEL OB—H column and hexane:isopropanol 95:5 (9:1 for methyl phenyl sulfoxide) at a flow rate of 0.5 ml*min^−1 as mobile phase. As reference either authentical samples of racemic epoxides were used. (Table 4). […]

[4] = T 20 °C, c([Cp*Rh(bpy)(H2O)]2+) 100 μM
[5] = T 30 °C, c([Cp*Rh(bpy)(H2O)]2+) 100 μM
[6] = T 35 °C, c([Cp*Rh(bpy)(H2O)]2+) 50 μM
[7] = FIG. 10: 37 °C, 0.2 mM [Cp*Rh(bpy)(H2O)]2+, 0.05 mM FAD, 2 mM styrene, 1.16 μM StyA

Cc1c(C)c(C)[c-](C)c1C.O.[Rh+3].c1ccc(-c2ccccn2)nc1 [[Cp*Rh(bpy)(H2O)]^2+]
influence on the activity of several dehydrogenases [1]: no influence on the activity
total turnover number (Cytochrome C (cytC); FIG. 9: 10 μM [Cp*Rh(bpy)(H2O)]2+, 80 μM cytC, 150 mM NaHCO2, 30 °C, degassed buffer, not optimized): 6
TF ([Cp*Rh(bpy)(H2O)]2+) (Cytochrome C (cytC); [4]): 4 h⁻¹
dc(CytC)red/dt (Cytochrome C (cytC); [4]): 0.4 mM * h^−
TF ([Cp*Rh(bpy)(H2O)]2+) (Cytochrome C (cytC); [5]): 21 h⁻¹
dc(CytC)red/dt (Cytochrome C (cytC); [5]): 2.1 mM * h^−
TF ([Cp*Rh(bpy)(H2O)]2+) (Cytochrome C (cytC); [6]): 32 h⁻¹
dc(CytC)red/dt (Cytochrome C (cytC); [6]): 1.6 mM * h^−
Turnover frequencies as CytC reduction catalyst (Cytochrome C (cytC); depend on the reaction temperature (20-35 °C)): 4-32 turnovers per hour
catalytic performance (hydrogen peroxide formation) ([2]; 0.2 mM [Cp*Rh(bpy)(H2O)]2+, 0.05 mM FAD, 1.16 μM StyA, 150 mM sodium formate, 37 °C, no styrene): 48 turnovers per hour
catalytic activities from initial H2O2-formation rates ([2]; 37 °C, c(NaHCO2) 0.15 M, 19 μM [Cp*Rh(bpy)(H2O)]2+, 0-200 μM FAD): 69.9±2.5 catalytic cycles per hour
overall catalytic activity (hydrogen peroxide and styrene oxide) ([2]; as E39, supplemented with 2 mM styrene, after 15 min): 47 turnovers per hour
[Cp*Rh(bpy)(H2O)]2+ performance TF [3, 7]: 11.3 h⁻¹
[Cp*Rh(bpy)(H2O)]2+ performance TTN [3, 7]: 5.3
relative activity ([3]; calculated on FADH2 generation rate determined in the absence of StyA, FIG. 10 conditions): 16.1^c %
